Measurements as given in publication PMC9187519, “In vivo visualization of fluorescence reflecting CDK4 activity in a breast cancer mouse model” (MedComm, 2022).

Tests used:
[1] = tested on: CDK4 kinase activity in T‐47D cells; assay: Cell microplate fluorescence imaging with CPP30‐Lipo/CDKACT4 in T‐47D; type: cell-based, human; details: different concentrations of palbociclib, n=3
Description: (§1) Cells (∼8 × 10^3 cells per well) were seeded in black 96‐well plates and incubated with CPP30‐Lipo/CDKACT4 for 12 h after siRNA transfection or treatment with graded concentrations of palbociclib (HY‐50767; Medchemexpress). Then, the cells were washed three times with PBS and refilled with fresh PBS. Cell fluorescence signals were immediately detected using the IVIS Lumina II imaging system (PerkinElmer).

[2] = tested on: MCF‐7 tumor xenografts; assay: In‐vivo fluorescence imaging, MRI and tumor analysis of MCF‐7 tumor xenografts; parameters: species or system BALB/c nude mice; details: for change of tumor/muscle (T/M) fluorescence signal ratio: 150 mg/kg daily oral gavage 7 days, pre vs post, average, n = 6
Description: For MCF‐7 tumor model establishment, 6–8‐week old female BALB/c nude mice purchased from Xiamen University Laboratory Animal Center were first subcutaneously implanted with 60‐day release 17β‐estradiol pellets (Innovative Research of America) in the right side of the neck. Three days later, 2 × 10^6 MCF‐7 cells were injected subcutaneously in 1:1 PBS:Matrigel (BioCoat) into the right leg of the nude mice. Tumors were measured by caliper two or three times per week.
When MCF‐7 tumors grew to a volume of 75–100 mm^3, the mice were randomly divided into two groups (n = 6) and given palbociclib (150 mg/kg diluted in […] sodium D‐lactate) or sterile water daily by oral gavage. Magnetic resonance imaging was performed before (0 days) and 7 days after treatment using a 9.4T BioSpec MicroMRI (Bruker), and fluorescence imaging was also performed using the IVIS Lumina II imaging system (PerkinElmer) at the observation time points after intravenous injection with CPP30‐Lipo/CDKACT4 (10 μl/g body weight, containing 30 μM CDKACT4). After imaging, tumor tissue was collected for IHC staining.
Tumors were fixed in 4% paraformaldehyde, embedded in paraffin, and cut into 4‐μm slices. Then, the sections were stained with rabbit monoclonal antibody to Rb (Phospho S795) (1:100 dilution, ab47474; Abcam) or Ki67 (1:500 dilution, 9449; CST). Finally, the sections were observed under an optical microscope.

[3] = tested on: MCF‐7 cells; assay: Cell cycle analysis (propidium iodide, flow cytometry); type: cell-based, human; details: MCF‐7, increasing concentration of palbociclib, n = 3
Description: Cells were harvested and fixed in 70% ethanol at 4 °C overnight. Then, the samples were incubated in a solution of 10 mg/ml RNase and 1 mg/ml propidium iodide (Yeasen Biotech) at 37 °C for 30 min in the dark. The DNA content was determined using flow cytometry (Becton, Dickinson & Co.).

[4] = tested on: CDK4 kinase activity in MCF‐7 cells; assay: Cell microplate fluorescence imaging with CPP30‐Lipo/CDKACT4; type: cell-based, human; details: n = 3; for reduction of fluorescence intensity: probe 12 h
Description: as §1

[5] = tested on: pRb (S795) in MCF‐7 cells; assay: Western blot of pRb (S795); type: cell-based, human
Description: Cells or minced tumor tissues were washed three times with ice‐cold PBS and lysed in RIPA buffer containing protease inhibitor cocktail (Roche Molecular Systems) and phosphatase inhibitor cocktail (Bimake). Tissues were further ground using a glass homogenizer on ice. Protein concentrations were determined with a BCA kit (Solarbio). Subsequent steps were performed as recently described.[36]

[6] = molecular target: T1, CDK4/Cyclin D (Homo sapiens, UniProt P11802); assay: CDKACT4 biosensor fluorescence in MCF‐7 cell extracts; type: biochemical; details: incubation with cell extracts prepared with different concentrations of palbociclib, n = 5
T1 construct: Fluorescence changes of CDKACT4 biosensor incubated with MCF‐7 cell extracts; endogenous in cells; host or cells: MCF-7 breast cancer cell extracts
T1 sequence (P11802 2-303 limits assumed): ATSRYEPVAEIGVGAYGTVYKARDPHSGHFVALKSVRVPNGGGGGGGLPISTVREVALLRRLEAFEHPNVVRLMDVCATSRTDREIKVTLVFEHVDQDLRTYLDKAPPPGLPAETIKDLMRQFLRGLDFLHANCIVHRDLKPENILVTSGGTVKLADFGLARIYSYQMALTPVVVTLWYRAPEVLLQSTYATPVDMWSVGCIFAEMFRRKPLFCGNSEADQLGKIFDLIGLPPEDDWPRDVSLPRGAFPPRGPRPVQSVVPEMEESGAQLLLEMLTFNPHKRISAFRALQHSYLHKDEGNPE
T1 sequence (P24385 whole entry partner): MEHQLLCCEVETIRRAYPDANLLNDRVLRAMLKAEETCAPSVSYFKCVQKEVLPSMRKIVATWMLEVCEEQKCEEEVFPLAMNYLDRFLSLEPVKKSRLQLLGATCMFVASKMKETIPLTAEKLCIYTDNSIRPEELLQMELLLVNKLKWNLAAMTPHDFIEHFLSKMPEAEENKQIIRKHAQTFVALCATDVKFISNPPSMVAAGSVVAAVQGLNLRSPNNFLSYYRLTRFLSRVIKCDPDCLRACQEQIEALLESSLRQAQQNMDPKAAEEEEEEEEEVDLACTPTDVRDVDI
Description: We initially determined whether the CDKACT4 peptide biosensor that we synthesized was effective at monitoring CDK4 kinase activity in MCF‐7 breast cancer cell extracts.
FIGURE 2 Characterization and spectral stability of CPP30‐Lipo/CDKACT4. (A) Fluorescence changes of CDKACT4 biosensor incubated with MCF‐7 cell extracts (red), CDKACT4 alone (blue), and cell extracts alone (green) during 180 min (n = 5). (B) Relative fluorescence intensity of CDKACT4 biosensor incubated with MCF‐7 cell extracts was monitored over time after treatment with different concentrations of palbociclib (n = 5). (C) Relative fluorescence intensity of MCF‐7 cell extracts‐incubated CDKACT4 at 120 min post‐treated with different concentrations of palbociclib from (b) (n = 5, **p < 0.01). (D) Transmission electron microscopy (TEM) images of CPP30‐Lipo/CDKACT4. Scale bar = 200 nm. (E) Diameter distribution of CPP30‐Lipo/CDKACT4. (F, G) UV–vis absorption spectra (F) and fluorescence emission spectra (G) of water, 5‐TAMRA, CDKACT4, and CPP30‐Lipo/CDKACT4. (H, I) Changes in absorption and fluorescence spectra of CPP30‐Lipo/CDKACT4 during 96 h in water. The samples were stored at room temperature in the dark

[7] = tested on: CDK4; parameters: method as in PMID 31482107; details: for CDK4; cited from earlier work
Text: We next investigated whether CPP30‐Lipo/CDKACT4 could be used to monitor the inhibition by the CDK4 inhibitor palbociclib in living cells.

fluorescence of the CDKACT4 peptide biosensor [6] | Structure (SMILES) | fluorescence intensity of CPP30‐Lipo/CDKACT4 [1] | change of tumor/muscle (T/M) fluorescence signal ratio ([2]; 12 h after caudal vein injection of probe) | change of tumor/muscle (T/M) fluorescence signal ratio ([2]; 24 h after caudal vein injection of probe) | change of tumor/muscle (T/M) fluorescence signal ratio ([2]; 48 h after caudal vein injection of probe) | longest diameter of the tumor by MRI ([2]; 150 mg/kg daily, day 0 vs day 7, n = 6) | tumor growth ([2]; after 14 days of treatment, n = 4) | percentage of cells positive for pRb in tumors ([2]; baseline vs day 7, immunohistochemical staining pRb (S795)) | tumor volume versus control group ([2]; during the 7 days of treatment, caliper) | ex vivo fluorescence intensity of tumors versus control group ([2]; palbociclib 7 days, 48 h post‐injection of probe, n = 3, p < 0.05) | Ki‐67 staining in tumors ([2]; palbociclib 7 days, immunohistochemical staining) | cells arrested in the G1 phase [3] | fluorescence intensity under a microscope ([4]; MCF‐7, confocal/fluorescence microscopy after incubation with probe) | reduction of fluorescence intensity ([4]; MCF‐7, inhibitor 10 nM) [%] | reduction of fluorescence intensity ([4]; MCF‐7, inhibitor 100 nM) [%] | reduction of fluorescence intensity ([4]; MCF‐7, inhibitor 1000 nM) [%] | pRb (S795) protein level [5] | IC50 [7] [nM]
decreased in a dose‐dependent manner | CC(=O)c1c(C)c2cnc(Nc3ccc(N4CCNCC4)cn3)nc2n(C2CCCC2)c1=O [palbociclib] | decreased with the increasing dose | –18.86% | –18.69% | –18.49% | no significant change | significantly inhibited | clear reductions | no significant difference | significantly lower | substantially reduced | up to 86.39% | significant dose‐dependent reduction | 3.17 | 44.70 | 60.67 | dose‐dependent decrease | 
 | CCN1CCN(Cc2ccc(Nc3ncc(F)c(-c4cc(F)c5nc(C)n(C(C)C)c5c4)n3)nc2)CC1 [abemaciclib] |  |  |  |  |  |  |  |  |  |  |  |  | 14.37 | 50.13 | 81.35 |  | […]
